Columns and labels:
[1] = tested on: ICR female mice; assay: In vivo toxicity of N4; design: species or system mouse
Procedure: Animal experiments were conducted in accordance with the Guide for the Care and Use of Laboratory Animals at Northeast Agricultural University (NEAU‐[2011]‐9). The experimental subjects comprised female ICR mice, aged 6 to 8 weeks and weighing 19 ± 1.1 g, sourced from Liaoning Changsheng Biotechnology Co. Thirty‐two mice were randomly divided into four groups after a 3‐day pre‐feeding period, followed by intraperitoneal injections of N4 at different doses (5, 10, and 20 mg kg^−1) to assess its toxicity, with saline treatment serving as the control group. Following injection, behavioral alterations were observed over a brief duration (0.5, 1, 4, and 8 h), and then body weight changes were monitored for 3 days. On the third day, the mice were euthanized via ether inhalation anesthesia, and blood samples were collected from the orbital vein for biochemical analysis, which was used to determine the levels of ALT, ALP, BUN, CREA, and TBIL. Subsequently, the liver, spleen, and kidneys were taken to determine organ coefficients. The relative organ weights were calculated using the formula: relative organ weight (%) = (organ weight/mouse body weight) × 100%. These organs were then fixed in 4% paraformaldehyde, following established protocols, for subsequent histological examination.^[ [70] ^]

[2] = tested on: clinically isolated strains; assay: MIC against clinically isolated strains (panel); assay type: cell-based; conditions: all four clinical strains of Figure 4G
Procedure: The MIC values of the nano‐short peptides were determined according to standard protocols.^[ [63] ^] Bacterial strains were revived from cryopreservation and cultured in Mueller–Hinton broth (MHB) to logarithmic growth phase, then diluted to a final density of 0.5–1 × 10⁶ CFU mL^−1. Serial dilutions of the nano‐short peptides were prepared in 0.2% bovine serum albumin (BSA) using a 96‐well plate format. Equal volumes of peptide solutions and bacterial suspensions were combined and incubated at 37 °C for 20–22 h. Bacterial growth was assessed by measuring absorbance at 492 nm, with MHB alone (negative control) and untreated bacterial suspension (positive control) included for reference.

[3] = Dynamic light scattering and zeta potential; assay type: physicochemical; conditions: 16 × 10^−6 M in deionized water; n = 3
Procedure: N4 was diluted to 16 × 10^−6 M using deionized water and added to disposable plastic cuvettes, and the kinetic diameters was determined using a Zetasizer Nano Z90 (Malvern Instruments, Worcestershire, U.K.).^[ [29] ^] N4 was diluted to 16 × 10^−6 M using deionized water and added to the electrode cups, and the zeta potential was determined using a Zetasizer Nano Z90 (Malvern Instruments, Worcestershire, UK).^[ [29] ^]

[4] = in vitro; conditions: female, ICR, mouse, serum
Procedure: N4 was incubated with serum isolated from mice for different durations (0, 1, 2, 4, 8, 12 h), followed by RP‐HPLC analyses to determine the retention rate.^[ [48] ^]

[5] = 5, 10, 20 mg kg^−1 intraperitoneal, day 3, p > 0.05, n = 8

## N=C(N)NCCC[C@H](NC(=O)[C@@H](CCCNC(=N)N)NC(=O)[C@H](Cc1cccc2ccccc12)NC(=O)[C@H](Cc1cccc2ccccc12)NC(=O)[C@H](Cc1cccc2ccccc12)NC(=O)[C@@H](N)Cc1cccc2ccccc12)C(=O)N[C@@H](CCCNC(=N)N)C(=O)N1CCC[C@H]1C(=O)O (stereo in doubt) [Peptide N4]
[1]; 20 mg kg^−1 intraperitoneal, ICR female mice, only two mice, within 1 h, n = 8
  clinical signs: mild and transient symptoms
[1]; 5, 10, 20 mg kg^−1 intraperitoneal, 3 days, p > 0.05, n = 8
  body weight vs control group: no significant differences
[1]; 5, 10, 20 mg kg^−1 intraperitoneal, day 3
  histopathology of liver, spleen, kidney (H&E): did not inflict histopathological damage
[1]; [5]
  levels of ALT, ALP, BUN, CREA and TBIL vs control group: no significant differences
  relative weights of the liver, spleen, and kidney: remained comparable
[2]
  MIC values against clinically isolated strains: ≤ 16 µM
[3]
  zeta potential: 6.99 mV
[4]
  remaining at 4 h: > 50%
  remaining at 12 h: 8.1%

— article PMC12677699, “Utilizing Proteolytic‐Resistant Nano‐Short Peptide Based on Naphthyl Tail‐Anchored to Combat Bacterial Infections” (Advanced Science, 2025)
